What was measured:
[1] = target: KPC-31 (Klebsiella pneumoniae, UniProt Q9F663, D178Y/H272Y); assay: Reactivity with recombinant enzyme, amperometric; type: biochemical; details: class A carbapenemase, protein, CF3 compound 2.4 mM, HMRZ-86 1.2 mM, 10 minutes at 37° C.
[2] = target: OXA-23 (Acinetobacter baumannii, UniProt Q9L4P2); assay: Reactivity with recombinant enzyme, amperometric; type: biochemical; details: class D carbapenemase, protein; CF3 compound 2.4 mM, HMRZ-86 1.2 mM; 10 minutes at 37° C.
[3] = target: CTX-M-25 (Escherichia coli, UniProt Q8KSA6); assay: Reactivity with recombinant enzyme, amperometric; type: biochemical; details: class A ESBL, protein; CF3 compound 2.4 mM, HMRZ-86 1.2 mM; 10 minutes at 37° C.
[4] = system: IMP-16; assay: Reactivity with recombinant enzyme, amperometric; type: biochemical; details: class B metallo-beta-lactamase, protein; CF3 compound 2.4 mM, HMRZ-86 1.2 mM; 10 minutes at 37° C.
[5] = system: IMP-4; assay: Reactivity with recombinant enzyme, amperometric; type: biochemical; details: class B metallo-beta-lactamase, protein; CF3 compound 2.4 mM, HMRZ-86 1.2 mM; 10 minutes at 37° C.
[6] = target: CTX-M-2 (Salmonella typhimurium, UniProt P74841); assay: Reactivity with recombinant enzyme, amperometric; type: biochemical; details: class A ESBL, protein; CF3 compound 2.4 mM, HMRZ-86 1.2 mM; 10 minutes at 37° C.
[7] = system: IMP-11; assay: Reactivity with recombinant enzyme, amperometric; type: biochemical; details: class B metallo-beta-lactamase, protein; CF3 compound 2.4 mM, HMRZ-86 1.2 mM; 10 minutes at 37° C.
[8] = system: OXA-58; assay: Reactivity with recombinant enzyme, amperometric; type: biochemical; details: class D carbapenemase, protein; CF3 compound 2.4 mM, HMRZ-86 1.2 mM; 10 minutes at 37° C.
[9] = system: VIM-5; assay: Reactivity with recombinant enzyme, amperometric; type: biochemical; details: class B metallo-beta-lactamase, protein; CF3 compound 2.4 mM, HMRZ-86 1.2 mM; 10 minutes at 37° C.
[10] = system: bacteria strains producing the carbapenemase KPC type; assay: Amperometric detection in blood culture; type: cell-based; details: CF3 6.0 mM, HMRZ-86 1.2 mM
Description: (§1) The beta-lactamase with group β being CF3 (6.0 mM), as well as the reference HMRZ-86 (1.2 mM) were also tested with blood cultures comprising bacteria strains producing the carbapenemase KPC type, the metallo-beta-lactamase VIM type and the metallo-beta-lactamase NDM type, as well as a blood culture comprising no bacteria strains producing beta-lactamases (negative control ATCC).

[11] = system: IMP-18; assay: Reactivity with recombinant enzyme, amperometric; type: biochemical; details: class B metallo-beta-lactamase, protein; CF3 compound 2.4 mM, HMRZ-86 1.2 mM; 10 minutes at 37° C.
[12] = system: AmpC positive clinical strains; assay: Reactivity with AmpC positive clinical strains, amperometric; type: cell-based, 11 different species; details: 30 strains, colonies in TPTZ buffer, 10 minutes at 37° C.
Description: The reactivities of HMRZ-86 and the CF3 (β)/4-cyanophenyl (R) [formula (I)] compounds for enzymes from Ambler classes C (AmpC cephalosporinases) were analyzed with AmpC positive clinical strains previously characterized by sequencing. These strains correspond to 11 different species, 24 different enzymes and 2 mechanisms of enzyme production [HCASE (hyperproductive) and CASEP (plasmid mediated (See Table 2) Table 2 represents the list of AmpC (Ambler class C cephalosporinases) positive clinical strains tested with the HMRZ-86 and the CF3 (β)/4-cyanophenyl (R) [formula (I)] compounds.
Colonies from 30 AmpC positive clinical strains collected from solid culture medium were diluted in a standard TPTZ buffer. […] A negative clinical strain and an positive one (CTX-M) were analyzed as […].

[13] = system: bacteria strains that produce NDM; assay: Amperometric detection in blood culture; type: cell-based; details: CF3 6.0 mM, HMRZ-86 1.2 mM
Description: (§2) The possibility of the beta-lactamase substrate compounds to detect bacteria strains producing different beta-lactamases was tested for the reference HMRZ-86 of example 1 (at 1.2 mM) and the beta-lactamase substrate compound with R being 2-nitro-4-cyano of Example 1 (at 2.4 mM). […] Consequently, amperometric voltammetry of the negative control with ATCC should give an oxidation current of 0 nA for the measurement to be valid.
as §1

[14] = system: bacteria strains that produce VIM type; assay: Amperometric detection in blood culture; type: cell-based; details: CF3 6.0 mM, HMRZ-86 1.2 mM
Description: as §2, §1

[15] = system: IMP-14; assay: Reactivity with recombinant enzyme, amperometric; type: biochemical; details: class B metallo-beta-lactamase, protein; CF3 compound 2.4 mM, HMRZ-86 1.2 mM; 10 minutes at 37° C.
[16] = system: VIM-11; assay: Reactivity with recombinant enzyme, amperometric; type: biochemical; details: class B metallo-beta-lactamase, protein; CF3 compound 2.4 mM, HMRZ-86 1.2 mM; 10 minutes at 37° C.
[17] = NMR stability study in relation to a dimethylformamide (DMF) reference; type: physicochemical; details: for degradation: DMF reference
Description: More particularly, when the degradation is determined by means of NMR measurements, a first sample comprising the beta-lactamase substrate compound according to the present disclosure and a second sample comprising the reference, e.g. DMF, are heated or cooled to a predefined temperature, after which the NMR measurement is performed on both samples (measurement at time=0). The same measurement is repeated on the samples after a predefined time (time=x), while their temperature is kept constant at the predefined temperature from time=0 to time=x. The difference of the integration of NMR measurement signals of both samples is determined by comparing between time=0 and time=x, thereby allowing to define the degree (percentage) of degradation of the beta-lactamase substrate compound at time=x.
The stability of the beta-lactamase substrate compounds over time at different temperatures was tested the reference HMRZ-86 of example 1 (at 1.2 mM) and the beta-lactamase substrate compound with R being 2-nitro-4-cyano of Example 1 (at 2.4 mM).
The stability was tested by a NMR stability study. The degradation was measured by measuring the evolution of the integration of NMR measurement signals of the molecule in relation to a dimethylformamide (DMF) reference. The stability of the beta-lactamase substrate compound is expressed by the percentage of degradation in function of time.
The stability of all 3 beta-lactamase substrate compounds (R being 4-cyanophenyl, group β being H, CH3 and CF3, respectively), as well as the beta-lactamase having the same group R and a group β according to formula II was tested at 20° C. in DMF as reference.

[18] = system: CTX-M-8; assay: Reactivity with recombinant enzyme, amperometric; type: biochemical; details: class A ESBL, protein; CF3 compound 2.4 mM, HMRZ-86 1.2 mM; 10 minutes at 37° C.
[19] = system: IMP-22; assay: Reactivity with recombinant enzyme, amperometric; type: biochemical; details: class B metallo-beta-lactamase, protein; CF3 compound 2.4 mM, HMRZ-86 1.2 mM; 10 minutes at 37° C.
[20] = system: VIM-13; assay: Reactivity with recombinant enzyme, amperometric; type: biochemical; details: class B metallo-beta-lactamase, protein; CF3 compound 2.4 mM, HMRZ-86 1.2 mM; 10 minutes at 37° C.
[21] = target: CTX-M-15 (Escherichia coli, UniProt Q9EXV5); assay: Reactivity with recombinant enzyme, amperometric; type: biochemical; details: class A ESBL, protein; CF3 compound 2.4 mM, HMRZ-86 1.2 mM; 10 minutes at 37° C.
[22] = system: OXA-213; assay: Reactivity with recombinant enzyme, amperometric; type: biochemical; details: class D carbapenemase, protein; CF3 compound 2.4 mM, HMRZ-86 1.2 mM; 10 minutes at 37° C.
[23] = system: IMP-31; assay: Reactivity with recombinant enzyme, amperometric; type: biochemical; details: class B metallo-beta-lactamase, protein; CF3 compound 2.4 mM, HMRZ-86 1.2 mM; 10 minutes at 37° C.
[24] = target: KPC-33 (Klebsiella pneumoniae, UniProt Q9F663, D178Y); assay: Reactivity with recombinant enzyme, amperometric; type: biochemical; details: class A carbapenemase, protein; CF3 compound 2.4 mM, HMRZ-86 1.2 mM; 10 minutes at 37° C.

Question: Which “reactivity (detection)” value ([1]; listed as CF3/4-cyanophenyl) does the source give for `N#Cc1ccc(C=CC2=C(C(=O)O)N3C(=O)C(NC(=O)C(F)(F)F)C3SC2)cc1` (centres unmarked) [CF3] here?
Answer: not detected

Question: And the “reactivity (detection)” value ([1]; listed as CF3/4-cyanostyryl)?
Answer: Not detected

Question: And the “reactivity (detection)” value [2]?
Answer: Detected

Question: And the “reactivity (detection)” value [3]?
Answer: Detected

Question: What about the “reactivity (detection)” value [4] of the same compound?
Answer: Detected

Question: What about the “reactivity (detection)” value [5] of the same compound?
Answer: Detected

Question: And the “reactivity (detection)” value [6]?
Answer: Detected

Question: What about the “reactivity (detection)” value [7] of the same compound?
Answer: Detected

Question: And the “reactivity (detection)” value [8]?
Answer: Detected

Question: What about the “reactivity (detection)” value [9] of the same compound?
Answer: Detected

Question: What about the “detection (oxidation current)” value [10] of the same compound?
Answer: capable of detecting

Question: And the “reactivity (detection)” value [11]?
Answer: Detected

Question: What about the “AmpC positive clinical strains detected as positive” value ([12]; substrate 2.4 mM) of the same compound?
Answer: All

Question: And the “detection (oxidation current)” value [13]?
Answer: do not detect

Question: And the “detection (oxidation current)” value [14]?
Answer: capable of detecting

Question: And the “reactivity (detection)” value [15]?
Answer: Detected

Question: What about the “reactivity (detection)” value [16] of the same compound?
Answer: Detected

Question: And the “time of first signs of degradation” value [17]?
Answer: 1 weeks

Question: What about the “reactivity (detection)” value [18] of the same compound?
Answer: Detected

Question: And the “reactivity (detection)” value [19]?
Answer: Detected

Question: And the “reactivity (detection)” value [20]?
Answer: Detected

Question: What about the “reactivity (detection)” value [21] of the same compound?
Answer: Detected

Question: What about the “reactivity (detection)” value [22] of the same compound?
Answer: Detected

Question: And the “reactivity (detection)” value [23]?
Answer: Detected

Question: And the “reactivity (detection)” value [24]?
Answer: Detected

Question: Which “reactivity (detection)” value [1] does the source give for `CC(C)(ON=C(C(=O)N[C@@H]1C(=O)N2C(C(=O)O)=C(C=Cc3ccc([N+](=O)[O-])cc3[N+](=O)[O-])CS[C@H]12)c1csc(N)n1)C(=O)O.O=C(O)C(F)(F)F` [HMRZ-86, reference compound] here?
Answer: Detected

Question: What about the “reactivity (detection)” value [2] of the same compound?
Answer: Not detected

Question: What about the “reactivity (detection)” value [3] of the same compound?
Answer: Detected

Question: And the “reactivity (detection)” value [4]?
Answer: Detected

Question: What about the “reactivity (detection)” value [5] of the same compound?
Answer: Detected

Question: And the “reactivity (detection)” value [6]?
Answer: Detected

Question: And the “reactivity (detection)” value [7]?
Answer: Detected

Question: And the “reactivity (detection)” value [8]?
Answer: Not detected

Question: And the “reactivity (detection)” value [9]?
Answer: Detected

Question: What about the “detection (oxidation current)” value [10] of the same compound?
Answer: capable of detecting

Question: And the “reactivity (detection)” value [11]?
Answer: Detected

Question: And the “AmpC positive clinical strains detected as positive” value ([12]; HMRZ-86 1.2 mM)?
Answer: 53.3%

Question: What about the “detection (oxidation current)” value [13] of the same compound?
Answer: do not detect

Question: And the “detection (oxidation current)” value [14]?
Answer: capable of detecting

Question: And the “reactivity (detection)” value [15]?
Answer: Detected

Question: And the “reactivity (detection)” value [16]?
Answer: Detected

Question: And the degradation ([17]; 4° C., after 1 day)?
Answer: over 50%

Question: What about the degradation ([17]; 20° C., after 1 week) of the same compound?
Answer: ~60%

Question: And the degradation ([17]; 20° C., after 18 weeks)?
Answer: over 90%

Question: And the degradation ([17]; 20° C., after 1 day)?
Answer: ~60%

Question: And the degradation over time ([17]; temperatures between 4° C. and 20° C.)?
Answer: significant degradation over time

Question: And the “reactivity (detection)” value [18]?
Answer: Detected

Question: What about the “reactivity (detection)” value [19] of the same compound?
Answer: Detected

Question: What about the “reactivity (detection)” value [20] of the same compound?
Answer: Detected

Question: What about the “reactivity (detection)” value [21] of the same compound?
Answer: Detected

Question: What about the “reactivity (detection)” value [22] of the same compound?
Answer: Not detected

Question: What about the “reactivity (detection)” value [23] of the same compound?
Answer: Detected

Question: What about the “reactivity (detection)” value [24] of the same compound?
Answer: Detected
